# Laboratory results taken from patent US11976083B2, “Inhibitors of peptidylarginine deiminases” (Gilead Sciences, Inc., priority 2020, dated 2024).
# Target: T1, human PAD4 (Homo sapiens, UniProt Q9UM07)
# T1 construct: human PAD4 (NM_012387), A2-P663, was PCR amplified; His-SUMO (N, cleaved yes); made in house; host or cells: E. coli BL21(DE3)
# Assay: In vitro PAD4 BAEE biochemical assay
# Details: BAEE substrate 3 mM, 5 nM PAD4, 2 mM calcium chloride; geometric mean of multiple experiments
# Method in brief: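 PAD4 5 nM, CaCl2 2 mM, BAEE 3 mM final; 50 mM MOPS pH 7.6, 50 mM NaCl, 0.05% Tween-20, 2 mM DTT. Cpd + enzyme 30 min 25 °C; substrate 2 h 25 °C; EDTA stop; OPA detection 1 h. IC50 4-parameter fit.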
# T1 sequence (Q9UM07 2-663): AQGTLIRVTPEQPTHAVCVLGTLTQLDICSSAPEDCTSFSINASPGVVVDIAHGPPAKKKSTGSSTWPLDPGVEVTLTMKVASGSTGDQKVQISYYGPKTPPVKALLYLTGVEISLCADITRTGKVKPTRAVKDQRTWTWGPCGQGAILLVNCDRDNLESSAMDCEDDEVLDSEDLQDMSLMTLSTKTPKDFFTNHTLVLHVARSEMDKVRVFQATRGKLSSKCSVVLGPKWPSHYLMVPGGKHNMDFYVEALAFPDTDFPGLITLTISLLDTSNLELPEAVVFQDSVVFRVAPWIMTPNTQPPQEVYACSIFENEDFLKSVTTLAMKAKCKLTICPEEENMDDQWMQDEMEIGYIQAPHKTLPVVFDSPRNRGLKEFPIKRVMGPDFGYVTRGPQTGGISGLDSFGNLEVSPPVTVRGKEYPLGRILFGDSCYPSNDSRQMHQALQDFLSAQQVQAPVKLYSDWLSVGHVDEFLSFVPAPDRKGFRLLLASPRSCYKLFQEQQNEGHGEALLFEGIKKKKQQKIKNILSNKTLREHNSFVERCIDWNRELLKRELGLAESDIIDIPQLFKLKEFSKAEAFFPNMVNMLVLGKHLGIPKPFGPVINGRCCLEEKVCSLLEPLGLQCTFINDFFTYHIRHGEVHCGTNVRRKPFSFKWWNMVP
row,SMILES,IC50
1,"C[C@H]1NC(=O)[C@H]2[C@H](CCCC(F)(F)Cn3c(-c4nc5cc(C(=O)N[C@H]6CNCC[C@@H]6F)c(F)cc5n4C)cc4ccc1nc43)C2(F)F [Example 378, 6-fluoro-~{N}-[(3~{S},4~{S})-4-fluoro-3-piperidyl]-1-methyl-2-[(2~{R},5~{R},7~{S})-6,6,11,11-tetrafluoro-2-methyl-4-oxo-3,13,19-triazatetracyclo[11.5.2.0^{5,7}.0^{16,20}]icosa-1(19),14,16(20),17-tetraen-14-yl]benzimidazole-5-carboxamide]",41 nM
2,"C[C@H]1NC(=O)[C@H]2C[C@@H]2CC[C@@H]2C[C@@H]2Cn2c(-c3nc4cc(C(=O)N[C@H]5CNCC[C@@H]5F)c(F)cc4n3C)cc3ccc1nc32 [Example 379, 6-fluoro-~{N}-[(3~{S),4~{S})-4-fluoro-3-piperidyl]-1-methyl-2-[(3~{S},5~{R},8~{S},10~{S},13~{R})-13-methyl-11-oxo-1,12,21-triazapentacyclo[12.5.2.0^{3,5}.0^{8,10}.0^ {17,20}]henicosa-14(21),15,17(20),18-tetraen-19-yl]benzimidazole-5-carboxamide]",2040 nM
3,"COc1cc(C(=O)N[C@H]2CNCC[C@@H]2C(F)(F)F)cc2nc(-c3cc4ccc5nc4n3CCCCCCC(C)(C)C(=O)N[C@@H]5C)n(C)c12 [Example 380, 7-methoxy-1-methyl-~{N}-[(3~{R},4~{S})-4-(trifluoromethyl)-3-piperidyl]-2-[(11~{R})-8,8,11-trimethyl-9-oxo-1,10,19-triazatricyclo[10.5.2.0^{15,18}]nonadeca-12(19),13,15(18),16-tetraen-17-yl]benzimidazole-5-carboxamide]",1270 nM
4,"C[C@H]1NC(=O)[C@H]2[C@H](CCCCCn3c(-c4nc5cc(C(=O)N[C@H]6CNCC[C@@H]6F)c(F)cc5n4C)cc4ccc1nc43)C2(F)F [Example 383, 2-[(2˜{R},5˜{R},7˜{S})-6,6-difluoro-2-methyl-4-oxo-3,13,19-triazatetracyclo[11.5.2.0^{5,7}.0^{16,20}]icosa-1(19),14,16(20),17-tetraen-14-yl]-6-fluoro-˜{N}-[(3˜{S},4˜{S})-4-fluoro-3-piperidyl]-1-methyl-benzimidazole-5-carboxamide]",28 nM
5,"C[C@H]1NC(=O)c2c(cccc2C(F)F)CCCCCn2c(-c3nc4cc(C(=O)N[C@H]5CNCC[C@@H]5F)c(F)cc4n3C)cc3ccc1nc32 [Example 384, 2-[(2~{R})-6-(difluoromethyl)-2-methyl-4-oxo-3,16,22-triazatetracyclo[14.5.2.0^{5,10}.0^{19,23}]tricosa-1(22),5(10),6,8,17,19(23),20-heptaen-17-yl]-6-fluoro-~{N}-[(3~{S},4~{S})-4-fluoro-3-piperidyl]-1-methyl-benzimidazole-5-carboxamide]",62 nM
6,"C[C@H]1NC(=O)[C@@H]2C[C@H]2CC[C@@H]2[C@H](Cn3c(-c4nc5cc(C(=O)N[C@H]6CNCC[C@@H]6F)c(F)cc5n4C)cc4ccc1nc43)C2(F)F [Example 386, 2-[(3~{R},5~{R},8~{R},10~{R},13~{R})-4,4-difluoro-13-methyl-11-oxo-1,12,21-triazapentacyclo[12.5.2.0^{3,5}.0^{8,10}.0^ {17,20}]henicosa-14(21),15,17(20),18-tetraen-19-yl]-6-fluoro-~{N}-[(3~{S},4~{S})-4-fluoro-3-piperidyl]-1-methyl-benzimidazole-5-carboxamide]",24 nM
7,"C[C@H]1NC(=O)[C@]2(F)C[C@H]2CCCCCn2c(-c3nc4cc(C(=O)N[C@H]5CNCC[C@@H]5F)c(F)cc4n3C3CC3)cc3ccc1nc32 [Example 387, 1-cyclopropyl-6-fluoro-2-[(2~{R},5~{S},7~{R})-5-fluoro-2-methyl-4-oxo-3,13,19-triazatetracyclo[11.5.2.0^{5,7}.0^{16,20}]icosa-1(19),14,16(20),17-tetraen-14-yl]-~ {N}-[(3~{S},4~{S})-4-fluoro-3-piperidyl]benzimidazole-5-carboxamide]",25 nM
8,C[C@H]1NC(=O)[C@@H]2C[C@@]2(F)CCCCCn2c(-c3nc4cc(C(=O)N[C@H]5CNCC[C@@H]5F)c(F)cc4n3C3CC3)cc3ccc1nc32 [Example 388],12 nM
9,"C[C@H]1NC(=O)[C@H]2[C@@H](CCCC(F)(F)Cn3c(-c4nc5cc(C(=O)N[C@H]6CNCC[C@@H]6F)c(F)cc5n4C4CC4)cc4ccc1nc43)C2(F)F [Example 389, 1-cyclopropyl-6-fluoro-~{N}-[(3~{S},4~{S})-4-fluoro-3-piperidyl]-2-[(2~{R},5~{R},7~{R})-6,6,11,11-tetrafluoro-2-methyl-4-oxo-3,13,19-triazatetracyclo[11.5.2.0^{5,7}.0^{16,20}]icosa-1(19),14,16(20),17-tetraen-14-yl]benzimidazole-5-carboxamide]",31 nM
10,"C[C@H]1NC(=O)[C@@H]2[C@@H](CCCC(F)(F)Cn3c(-c4nc5cc(C(=O)N[C@H]6CNCC[C@@H]6F)c(F)cc5n4C4CC4)cc4ccc1nc43)C2(F)F [Example 390, 1-cyclopropyl-6-fluoro-~{N}-[(3~{S},4~{S})-4-fluoro-3-piperidyl]-2-[(2~{R},5~{S},7~{R})-6,6,11,11-tetrafluoro-2-methyl-4-oxo-3,13,19-triazatetracyclo[11.5.2.0^{5,7}.0^{16,20}]icosa-1(19),14,16(20),17-tetraen-14-yl]benzimidazole-5-carboxamide]",88 nM
11,"C[C@H]1NC(=O)[C@H]2[C@H](CCCC(F)(F)Cn3c(-c4nc5cc(C(=O)N[C@H]6CNCC[C@@H]6F)c(F)cc5n4C4CC4)cc4ccc1nc43)C2(F)F [Example 391, 1-cyclopropyl-6-fluoro-~{N}-[(3~{S},4~{S})-4-fluoro-3-piperidyl]-2-[(2~{R},5~{R},7~{S})-6,6,11,11-tetrafluoro-2-methyl-4-oxo-3,13,19-triazatetracyclo[11.5.2.0^{5,7}.0^{16,20}]icosa-1(19),14,16(20),17-tetraen-14-yl]benzimidazole-5-carboxamide]",34 nM
12,"C[C@H]1NC(=O)[C@H]2[C@@H](CCCCCn3c(-c4nc5cc(C(=O)N[C@H]6CNCC[C@@H]6F)c(F)cc5n4C4CC4)cc4ccc1nc43)C2(F)F [Example 392, 1-cyclopropyl-2-[(2~{R},5~{R},7~{R})-6,6-difluoro-2-methyl-4-oxo-3,13,19-triazatetracyclo[11.5.2.0^{5,7}.0^{16,20}]icosa-1(19),14,16(20),17-tetraen-14-yl]-6-fluoro-~{N}-[(3~{S},4~{S})-4-fluoro-3-piperidyl]benzimidazole-5-carboxamide]",22 nM
13,"C[C@H]1NC(=O)[C@@H]2[C@@H](CCCCCn3c(-c4nc5cc(C(=O)N[C@H]6CNCC[C@@H]6F)c(F)cc5n4C4CC4)cc4ccc1nc43)C2(F)F [Example 393, 1-cyclopropyl-2-[(2~{R},5~{S},7~{R})-6,6-difluoro-2-methyl-4-oxo-3,13,19-triazatetracyclo[11.5.2.0^{5,7}.0^{16,20}]icosa-1(19),14,16(20),17-tetraen-14-yl]-6-fluoro-~{N}-[(3~{S},4~{S})-4-fluoro-3-piperidyl]benzimidazole-5-carboxamide]",63 nM
14,"C[C@H]1NC(=O)[C@H]2[C@H](CCCCCn3c(-c4nc5cc(C(=O)N[C@H]6CNCC[C@@H]6F)c(F)cc5n4C4CC4)cc4ccc1nc43)C2(F)F [Example 394, 1-cyclopropyl-2-[(2~{R},5~{R},7~{S})-6,6-difluoro-2-methyl-4-oxo-3,13,19-triazatetracyclo[11.5.2.0^{5,7}.0^{16,20}]icosa-1(19),14,16(20),17-tetraen-14-yl]-6-fluoro-~{N}-[(3~{S},4~{S})-4-fluoro-3-piperidyl]benzimidazole-5-carboxamide]",23 nM
15,"Cc1cncc2c1C(=O)N[C@H](C)c1ccc3cc(-c4nc5cc(C(=O)N[C@H]6CNCC[C@@H]6F)c(F)cc5n4C4CC4)n(c3n1)CCCCC2 [Example 395, 1-cyclopropyl-2-[(2~{R})-2,6-dimethyl-4-oxo-3,8,16,22-tetrazatetracyclo[14.5.2.0^{5,10}.0^{19,23}]tricosa-1(22),5(10),6,8,17,19(23),20-heptaen-17-yl]-6-fluoro-~{N}-[(3~{S},4~{S})-4-fluoro-3-piperidyl]benzimidazole-5-carboxamide]",29 nM
16,"Cc1nccc2c1C(=O)N[C@H](C)c1ccc3cc(-c4nc5cc(C(=O)N[C@H]6CNCC[C@@H]6F)c(F)cc5n4C4CC4)n(c3n1)CCCCC2 [Example 396, 1-cyclopropyl-2-[(2~{R})-2,6-dimethyl-4-oxo-3,7,16,22-tetrazatetracyclo[14.5.2.0^{5,10}.0^{19,23}]tricosa-1(22),5(10),6,8,17,19(23),20-heptaen-17-yl]-6-fluoro-~{N}-[(3~{S},4~{S})-4-fluoro-3-piperidyl]benzimidazole-5-carboxamide]",17 nM
17,"COc1cc(C(=O)N2CC[C@@H](OC)[C@@H](N)C2)cc2nc(-c3cc4ccc5nc4n3CCCCCc3cccc(C(F)F)c3C(=O)N[C@@H]5C)n(C)c12 [Example 397, (2~{R})-17-[5-[(3~{S},4~{R})-3-amino-4-methoxy-piperidine-1-carbonyl]-7-methoxy-1-methyl-benzimidazol-2-yl]-6-(difluoromethyl)-2-methyl-3,16,22-triazatetracyclo[14.5.2.0^{5,10}.0^{19,23}] tricosa-1(22),5(10),6,8,17,19(23),20-heptaen-4-one]",91 nM
18,"COc1cc(C(=O)N[C@H]2CNCC[C@@H]2F)cc2nc(-c3cc4ccc5nc4n3CCCCCc3c(noc3C)C(=O)N[C@@H]5C)n(C)c12 [Example 398, 2-[(2~{R})-2,8-dimethyl-4-oxo-7-oxa-3,6,15,21-tetrazatetracyclo[13.5.2.0^{5,9}.0^{18,22}]docosa-1(21),5,8,16,18(22),19-hexaen-16-yl]-~{N}-[(3~{S},4~{S})-4-fluoro-3-piperidyl]-7-methoxy-1-methyl-benzimidazole-5-carboxamide]",74 nM
